Experimental findings from patent US20210177879A1, “VITAMIN D RECEPTOR AGONIST” (Guanghzou University of Chinese Medicine, priority 2018, published 2021) are described below.

One test deals with vitamin D receptor. Briefly: Expression of vitamin D receptor in colon tissues, Experiment 2 (Western blot, immunohistochemistry). It is filed as in vivo, Balb/c mice. The note with it: compared with the blank group; VD3 0.2 mg/kg, four compounds 2 mg/kg. On the procedure:
Experimental method: 70 Balb/c mice of 6-8 weeks were purchased from the Experimental Animal Center in Guangzhou University of Chinese Medicine, weighed about 18-22 g, and subjected to adaptive feeding for 10 days. Modeling was divided into three stages. In the first stage, except for the normal group of animals being given saline injection, each of the other animals were intraperitoneally injected with a carcinogen AOM (10 mg/kg), and given free access to 2% DSS water from the next day for 7 days, and then given access to replaced regular drinking water for 14 days. In the second stage, the animals were given free access to 2% DSS water for 10 days, and then given access to replaced regular drinking water for 14 days. In the third stage, the animals were given free access to 2% DSS water for 10 days, and then given access to replaced regular drinking water for 11 days. The normal group was given access to regular drinking water throughout the experiment. The diet, water drinking and body weights of the animals were recorded daily and DAI scores were made, and the animals were killed and harvested at the 10th week. In this experiment, the animals were divided into groups and administrated on the first day of a modeling period of the second stage, where a total of 7 groups were set, each group including 10 animals. The first group was a blank control group (control) that was given access to drinking water by gavage; the second group was a model group (model), in which a total of 10 animals were given access to drinking water by gavage; the third group was a vitamin D3 positive administration control group (VD3, 0.2 mg/kg); and the fourth to seventh groups were given monotropein, desacetyl asperulosidic acid, asperuloside, and asperulosidic acid (groups labeled as: Mo, As, Aa, Da), respectively at a given dose of 2 mg/kg. Dosing was conducted once a day until the end of the experiment. At the end of the experiment, the animals were anesthetized and harvested, and the colon tissue was taken, measured with a ruler for the length, and measured with a vernier caliper for the thickness. The effects of monotropein, desacetyl asperulosidic acid, asperuloside and asperulosidic acid on expression of the vitamin D receptor were detected.
On the technique in general: A western blot detects proteins with antibodies after separation by electrophoresis.

Test [1] deals with transplanted tumor of SW1990 breast cancer cells. In words: Transplanted tumor of SW1990 breast cancer cells in nude mice. The note with it: 2 mg/kg in combination with 5-fluorouracil at half dose (20 mg/kg), once a day; effect comparable to 5-fluorouracil alone 40 mg/kg. The format is in vivo. On the procedure: The SW1990 cells were thawed, and cultured in a changed medium after 24 hours. Medium preparation method: 6% serum, 1% of a bispecific antibody+a 1640 basal medium. After grown to confluent, the cells were digested and subcultured to expand the number of cells. When reached the required amount, the cells were digested by trypsin, centrifuged, and resuspended in PBS to prepare a cell suspension of 1×10^8 cells/ml. A part of the cell suspension was added with the monotropein, desacetyl asperulosidic acid, asperuloside, and asperulosidic acid respectively, and the inhibition rate (%) of tumor cell proliferation by each of these different compounds was examined.
Male adult nude mice, which had the body weights of 20-24 g, were purchased from Guangdong Medical Laboratory Animal Center. After 7 days of adaptive feeding of the animals, except for the blank group, the remaining animals were injected with 0.2 ml of a SW1990 cell suspension in PBS at ventrodorsal and scapula sites of them, the response conditions of the animals were observed, and the body weights of the animals were determined once a week. After 2 weeks of observation, the animals were grouped into the following groups according to tumor size: a blank group; a model group; a 5-fluorouracil control group (5-Full, 40 mg/kg); monotropein+5-fluorouracil (2 mg/kg monotropein+20 mg/kg 5-fluorouracil), desacetyl asperulosidic acid+5-fluorouracil (2 mg/kg desacetyl asperulosidic acid+20 mg/kg 5-fluorouracil), asperuloside+5-fluorouracil (2 mg/kg asperuloside+20 mg/kg 5-fluorouracil), asperulosidic acid+5-fluorouracil (2 mg/kg asperulosidic acid+20 mg/kg 5-fluorouracil), these groups being labeled as: Mo, As, Aa, Da. Each group included 8 animals; and administration was conducted once a day.
The status, death conditions, and eating and drinking conditions of the animals were observed daily. The body weights of the animals were determined once a week and the tumor size of the animals was determined every 4 days. The tumor volume of the animals was determined by using a vernier caliper. After 1 month of administration, the animals were sacrificed after blood was sampled from the orbit thereof, and the tumor was separated and weighed.

The subject of test [2] is AOM/DSS colon cancer model. Briefly: AOM/DSS colon cancer model, Experiment 1 (body weight, anal prolapse, organ coefficient, colon and tumor indexes). The format is in vivo, Balb/c mice. The method, then:
Experimental method: 90 Balb/c mice of 6-8 weeks were purchased from the Experimental Animal Center in Guangzhou University of Chinese Medicine, weighed about 18-22 g, and subjected to adaptive feeding for 10 days. Modeling was divided into three stages. In the first stage, except for the normal group of animals being given saline injection, each of the other animals were intraperitoneally injected with a carcinogen AOM (10 mg/kg), and given free access to 2% DSS water from the next day for 7 days, and then given access to replaced regular drinking water for 14 days. In the second stage, the animals were given free access to 2% DSS water for 10 days, and then given access to replaced regular drinking water for 14 days. In the third stage, the animals were given free access to 2% DSS water for 10 days, and then given access to replaced regular drinking water for 11 days. The normal group was given access to regular drinking water throughout the experiment. The diet, water drinking and body weights of the animals were recorded daily and DAI scores were made, and the animals were killed and harvested at the 10th week. In this experiment, the animals were divided into groups and administrated on the first day of a modeling period of the second stage, and the total number of groups was set to 5 groups. The first group was a blank control group (Normal), in which a total of 12 animals were given access to drinking water by gavage; the second group was a model group (AOM/DSS), in which a total of 22 animals were given access to drinking water by gavage; the third group was a positive drug control group (5-ASA+AOM/DSS), in which a total of 22 animals were given access to 100 mg/kg of mesalazine (5-ASA) by gavage; and the fourth and fifth groups were monotropein-intervening groups (Mo+AOM/DSS), which were a high dose of 8 mg/kg and a low dose of 2 mg/kg, respectively, with 17 animals in each group. Dosing was conducted daily until dissection.
(1) The calculation formula of a DAI score: DAI value=(score of weight loss+score of stool trait+score of blood in stool)/3.
The animals were anesthetized and harvested, and the liver, spleen, thymus and testis were weighed to calculate the organ coefficient; the colon tissue was taken, measured with a ruler for the length, and measured with a vernier caliper for the thickness, and the number and size of tumors and degree of colonic ulceration and adhesion were recorded; respective tissues were cut into small pieces and fixed, and the remaining tissues were frozen and stored; and the fixed tissues were used for HE staining and immunohistochemistry.

As for `O=C(O)C1=CO[C@@H](O[C@@H]2O[C@H](CO)[C@@H](O)[C@H](O)[C@H]2O)[C@H]2[C@@H]1C=C[C@]2(O)CO` [monotropein], the “expression of the vitamin D receptor in the colon tissues (Western blot and immunohistochemistry)” value in the test with vitamin D receptor is given as “promote expression enhancement”. Also, the “tumor proliferation in SW1990 tumor-bearing mice” value in test [1] is recorded as “significantly inhibit tumor proliferation”. The “spleen enlargement caused by AOM/DSS modeling (organ coefficient)” value in test [2] (monotropein high (8 mg/kg) and low (2 mg/kg) doses, 5-ASA 100 mg/kg) is given as “significantly reduce the spleen enlargement”. In addition, in test [2] (per group, monotropein 8 mg/kg and 2 mg/kg groups (17 animals each), 5-ASA 100 mg/kg (22 animals), gavage daily, model group 8-12), the “anal prolapse occurrence at the third stage of modeling” value is on record as 2-6 animals.
